# Experimental data from ChEMBL document CHEMBL5143547, “Antimycobacterial and anti-inflammatory activities of thiourea derivatives focusing on treatment approaches for severe pulmonary tuberculosis” (Bioorg Med Chem, 2022).
# Active and inactive are the calls of the source. The calls are words filed in the database; no cut-off is given here.
# Tests used:
# [1] = test system: Mycobacterium tuberculosis; assay: Antitubercular activity against Mycobacterium tuberculosis H37Rv assessed as reduction in microbial growth after 5 days by MTT assay; format: functional; settings: 120 h, time 5 day
# RAW264.7 [2] = assay: Inhibition of NO production in mouse RAW264.7 cells incubated for 24 hrs by Griess reagent based analysis; format: functional, cell-based; settings: RAW264.7, 24 h
# [3] = Selectivity index, ratio of CC50 for cytotoxicity against LPS-stimulated mouse RAW264.7 cells to MIC50 for antitubercular activity against Mycobacterium tuberculosis H37Rv; format: toxicity, cell-based; settings: LPS-stimulated RAW264.7 cells, read-out: Selectivity Index
# [4] = Cytotoxicity against LPS-stimulated mouse RAW264.7 cells after 24 hrs by MTT assay; format: toxicity, cell-based; settings: LPS-stimulated RAW264.7 cells
# RAW264.7 [5] = assay: Anti-inflammatory activity against LPS-stimulated mouse RAW264.7 cells assessed as reduction in TNFalpha protein expression level at 12.5 uM after 24 hrs by ELISA; format: functional, cell-based
# [6] = test system: Mycobacterium tuberculosis; assay: Antitubercular activity against Mycobacterium tuberculosis M299 assessed as reduction in microbial growth after 5 days by MTT assay; format: functional, organism-based; settings: M299, 120 h
# [7] = test system: Mycobacterium tuberculosis; assay: Antitubercular activity against Mycobacterium tuberculosis M299 infected in mouse RAW264.7 cells assessed as reduction in intracellular microbial growth after 4 days followed by cell lysis and measured after 21 days; format: functional; settings: M299, 96 h, time 4 day
# [8] = Selectivity index, ratio of CC50 for cytotoxicity against LPS-stimulated mouse RAW264.7 cells to MIC50 for antitubercular activity against Mycobacterium tuberculosis M299; format: toxicity, cell-based; settings: LPS-stimulated RAW264.7 cells, read-out: Selectivity Index
# [9] = test system: Mycobacterium tuberculosis; assay: Antitubercular activity against Mycobacterium tuberculosis H37Rv infected in mouse RAW264.7 cells assessed as reduction in microbial growth after 4 days followed by cell lysis and measured after 21 days; format: functional; settings: 96 h, time 4 day
# RAW264.7 [10] = assay: Anti-inflammatory activity against LPS-stimulated mouse RAW264.7 cells assessed as reduction in iNOS protein expression level at 100 uM after 24 hrs by immunoblot analysis relative to control; format: functional
# RAW264.7 [11] = assay: Anti-inflammatory activity against LPS-stimulated mouse RAW264.7 cells assessed as reduction in IL1beta protein expression level after 24 hrs by ELISA; format: functional, cell-based; settings: RAW264.7, 24 h
# RAW264.7 [12] = assay: Anti-inflammatory activity against LPS-stimulated mouse RAW264.7 cells assessed as reduction in TNFalpha protein expression level after 24 hrs by ELISA; format: functional, cell-based; settings: RAW264.7, 24 h
# RAW264.7 [13] = assay: Anti-inflammatory activity against LPS-stimulated mouse RAW264.7 cells assessed as reduction in iNOS protein expression level at 50 uM after 24 hrs by immunoblot analysis; format: functional, cell-based
Structure (SMILES),MIC50 [1] [µM],IC50 (RAW264.7 [2]) [µM],selectivity ratio [3],CC50 at 24 h [4] [µM],inhibition (RAW264.7 [5]),IC50 [6] [µM],MIC50 [7] [µM],selectivity ratio [8],MIC50 [9] [µM],inhibition at 100 µM (RAW264.7 [10]) [%],IC50 (RAW264.7 [11]) [µM],IC50 (RAW264.7 [12]) [µM],inhibition (RAW264.7 [13])
N#CNC(=S)NCCc1ccccc1,33.3,10.1,1.9,65.9,,,,,,,,,
S=C(NCc1ccccc1)Nc1ccccn1,17.7,≥ 200,> 1.1,≥ 200,,,,,,,,,
COc1ccc(CN2CCN(C(=S)Nc3ccccc3)CC2)c(OC)c1OC,16,≥ 200,2.2,34.9,,,,,,,,,
Oc1ccc(N2CCN(C(=S)Nc3ccccc3)CC2)cc1,155,155,1.2,186,,,,,,,,,
S=C(NCc1ccccc1)N(c1ccccc1)c1ccccc1,≥ 200,≥ 200,0.3,67.6,,,,,,,,,
CCCCN1CCN(C(=S)NCc2ccccc2)CC1,157,≥ 200,> 1.3,≥ 200,,,,,,,,,
S=C(Nc1ccccc1)N1CCN(Cc2ccc3c(c2)OCO3)CC1,23.9,116,> 8.4,≥ 200,,,,,,,,,
S=C(NCc1ccccc1)N1CCN(c2ncccn2)CC1,17.8,≥ 200,2.9,50.9,,,,,,,,,
COc1cc(NC(=S)Nc2cc(OC)c(OC)c(OC)c2)cc(OC)c1OC,64.2,31.8,0.9,60.6,,,,,,,,,
COc1ccc(NC(=S)NCc2ccccc2)cc1,7.9,≥ 200,133,105,,,,,,,,,
CC(C)NC(=S)NCCc1ccccc1,108,20.6,> 1.9,≥ 200,,,,,,,,,
OCCNC(=S)Nc1ccccc1,53.3,≥ 200,1.9,105,,,,,,,,,
COc1cc(NC(=S)Nc2ccccc2)cc(OC)c1OC,28.9,15.2,5.3,154,,,,,,,,,
CC(C)c1ccc(NC(=S)NCc2ccccc2)cc1,2.3,2.4,52.5,121,Active,7.8,5.6,15.5,1.7,≤ 100,55.7,4,Active
CC(C)Cc1ccc(C(C)C(=O)O)cc1 (stereo not given) [IBUPROFEN],,,,,Active,,,,,,14.4,2.1,
S=C(Nc1ccccc1)Nc1ccccn1,16.4,182,> 12.2,≥ 200,,,,,,,,,
COc1ccc(NC(S)=Nc2ccccc2)cc1,16.2,≥ 200,2.7,43.3,,,,,,,,,
S=C(NCc1ccccc1)N1CCN(c2ccccc2)CC1,27.9,4.1,1.9,54.3,,,,,,,,,
COc1cc(NC(=S)N2CCN(c3ccc(O)cc3)CC2)cc(OC)c1OC,80.9,≥ 200,0.2,17.3,,,,,,,,,
S=C(Nc1ccccc1)N1CCN(c2ccccn2)CC1,9.5,≥ 200,> 21.1,≥ 200,,,,,,,,,
O=C(O)c1ccc(NC(=S)NCc2ccccc2)cc1O,5.9,8.1,33.3,197,Active,24.7,24.7,8,10.9,≤ 100,47.9,28.4,
O=C(NNC(=S)NCc1ccccc1)c1ccncc1,1.3,7.4,71.7,93.2,Active,6.9,32,13.5,3.7,≤ 100,≥ 200,18.7,
Oc1cccc(NC(=S)NCc2ccccc2)c1,77.2,200,> 2.6,≥ 200,,,,,,,,,
CCCCN1CCN(C(=S)Nc2ccccc2)CC1,31.5,≥ 200,> 6.4,≥ 200,,,,,,,,,
